What all share (assay): inhibition of tumour cell growth, NCI panel, 48 h
For test [1], the system named is 786-0 renal.
In test [2] the test system is OVCAR-5 ovarian.
Test [3] has as its system PC-3 prostate.
In test [4] the test system is SNB-75 CNS.
Test [5] concerns SK-MEL-5 melanoma.
Test [6] concerns ACHN renal.
Test [7] concerns BT-549 breast.
Test [8] relates to UO-31 renal.
Test [9] has as its system HOP-92 NSCLC.
The subject of test [10] is MDA-N.
Test [11] concerns EKVX NSCLC.
For test [12], the system named is SR leukemia.
The subject of test [13] is HL-60(TB) leukemia.

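Five concentrations, 48 hours, 96-well plates. Definition used: TGI = concentration required for complete inhibition of growth.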 Where only a bound is given, the exact number is not on record here.

In the case of `C/C=C\C(CC(=O)OC)CC(=O)N(CCC1CN(S(=O)(=O)C(F)(F)F)c2ccccc21)Cc1ccc(OC)cc1OC` (centres undefined), the TGI in [1], in test [2], in test [3], in [4], in test [5] and in test [6] was more than 100 µM in each case. For the same compound, the TGI in [7], in test [8], in [9], in [10] and in test [11] was more than 100 µM in each case.

`CC(C)(C)[Si](C)(C)OCC1OC(n2ccc(=O)[nH]c2=O)C(O[Si](C)(C)C(C)(C)C)[C@]12O[C@@H]2CO` (some centres undefined): the TGI was 44.6 µM in test [1]; 40.6 µM in test [2]; 16.8 µM in test [3]; 40.4 µM in [4]; more than 100 µM in test [12]; 34.7 µM in test [5]. For the same compound, the TGI in [6] was found to be 24.2 µM; in [7], 19.4 µM; in test [8], 21.7 µM; in [9] it was 32.8 µM; in test [10], 59 µM; in test [11], 36.6 µM.

Consider `COC(=O)/N=[N+](\[O-])C(c1ccccc1)c1ccccc1`, for which the TGI in test [1], in test [2], in test [3], in test [4], in [12] and in [5] was more than 100 µM each time. Also, the TGI in test [7] is more than 100 µM; in test [13] it was more than 100 µM; in [8], 70.9 µM; in test [10], more than 100 µM; in test [11], more than 100 µM.

As to `C[N+]12C=CC=C1C(N1CCCC1)c1scc(-c3ccc(F)cc3)c12` (centres undefined), the TGI was more than 100 µM in [1]; more than 100 µM in test [2]; more than 100 µM in test [3]; more than 100 µM in test [4]; 31.9 µM in [12]; 36.2 µM in test [5]. Also, the TGI in test [7] was 88 µM; in [8], more than 100 µM; in test [10], more than 100 µM; in [11], more than 100 µM.

For the compound `O=C(Nc1cccc(C(=O)NCCCO)c1)/C(=C/c1ccccc1)NC(=O)c1ccccc1`, the TGI in test [1], in test [2], in test [3], in test [4], in test [5] and in [6] was more than 100 µM throughout. The TGI in test [7], in [13], in [8], in test [9], in test [10] and in test [11] was more than 100 µM in each case.

For the compound `CN(C)c1ccc(/C=C(\NC(=O)c2ccccc2)C(=O)Nc2cccc(C(=O)NCCCO)c2)cc1`, the TGI in test [1], in test [2], in test [3], in test [4], in test [5] and in [6] was more than 100 µM throughout. Further, the TGI in test [7], in test [13], in test [8], in [9], in [10] and in test [11] was more than 100 µM throughout.

With `O=c1[nH]c2c(c(=O)[nH]1)C(c1ccc([N+](=O)[O-])cc1)c1c([nH]c(=O)[nH]c1=O)O2`, the TGI in test [1], in test [2], in test [3], in test [5], in test [6] and in test [7] was more than 100 µM each time. The TGI in test [13], in test [8], in test [10] and in test [11] was more than 100 µM each time.

In the case of `CN1CC2=C(NC(=S)NC2c2ccccc2Cl)/C(=C/c2ccccc2Cl)C1` (centres undefined), the TGI in [1] is more than 100 µM; in test [2], more than 100 µM; in test [3] it was more than 100 µM; in [4], 23.8 µM; in test [12], 70.5 µM; in test [5] it was 32.3 µM. Besides, the TGI in test [6] is more than 100 µM; in [13], 62.6 µM; in [8], 93.1 µM; in [9], 99.1 µM; in test [10], more than 100 µM; in test [11], more than 100 µM.

As for `CN1CCN(Cc2nc3c(s2)CCc2sccc2-3)CC1`, the TGI is more than 100 µM in test [1]; more than 100 µM in test [2]; more than 100 µM in test [3]; more than 100 µM in [4]; 99.7 µM in test [12]; more than 100 µM in test [5]. Also, the TGI in test [6], in test [7], in [8], in test [10] and in [11] was more than 100 µM throughout.

On to `Cc1cc2c(cc1Cl)SC(NNC1=NCCN1)=NS2(=O)=O`, for which the TGI in test [1], in [2], in test [3], in [4], in [5] and in test [6] was more than 10 µM throughout. Moreover, the TGI in [7], in [13], in [8], in [10] and in test [11] was more than 10 µM in each case.

For the compound `CC(=O)n1[nH]c(=O)n(-c2ccccc2)c1=O`, the TGI in test [1], in test [2], in [3], in [12], in [5] and in test [6] was more than 100 µM throughout. Further, the TGI in test [7], in [13], in test [8], in test [10] and in test [11] was more than 100 µM throughout.

Turning to `S=C1CC(c2ccccc2)Sc2cc(Cl)ccc2N1` (centres undefined), the TGI is 17.7 µM in [1]; more than 100 µM in [2]; more than 100 µM in test [3]; 20.8 µM in test [4]; 83.7 µM in test [12]; 29.4 µM in [5]. Besides, the TGI in test [6] is 27 µM; in test [7], more than 100 µM; in [8] it was more than 100 µM; in [10], 39.6 µM; in test [11], more than 100 µM.

Values taken from PubChem BioAssay (NCI).
